Laboratory results reported in ChEMBL document CHEMBL5108009, “Positron Emission Tomography (PET) Imaging Tracers for Serotonin Receptors” (J Med Chem, 2022).
Each block holds one compound with its values, some of them ahead of it.

Key:
[1] = biological target: T1, 5-hydroxytryptamine receptor 1A (Rattus norvegicus, UniProt P19327); experiment: Displacement of [3H]-8-OH-DPAT from Sprague-Dawley rat hippocampal membrane 5HT1A receptor incubated for 10 mins by liquid scintillation analysis; assay type: cell membranes, Hippocampus
T1 sequence (P19327 whole entry): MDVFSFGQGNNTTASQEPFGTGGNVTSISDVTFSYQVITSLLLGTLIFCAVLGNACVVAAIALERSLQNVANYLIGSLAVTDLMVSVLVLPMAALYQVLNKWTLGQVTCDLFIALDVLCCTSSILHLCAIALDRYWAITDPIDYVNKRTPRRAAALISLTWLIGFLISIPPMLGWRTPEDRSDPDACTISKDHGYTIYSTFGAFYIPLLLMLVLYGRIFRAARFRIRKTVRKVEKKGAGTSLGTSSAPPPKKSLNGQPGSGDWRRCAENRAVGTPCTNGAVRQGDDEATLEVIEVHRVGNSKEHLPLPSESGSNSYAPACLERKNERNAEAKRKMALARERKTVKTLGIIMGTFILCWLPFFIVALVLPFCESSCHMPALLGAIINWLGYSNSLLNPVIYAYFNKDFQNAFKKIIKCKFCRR

[2] = biological target: T2, 5-hydroxytryptamine receptor 1A (Homo sapiens, UniProt P08908)
T2 sequence (P08908 whole entry): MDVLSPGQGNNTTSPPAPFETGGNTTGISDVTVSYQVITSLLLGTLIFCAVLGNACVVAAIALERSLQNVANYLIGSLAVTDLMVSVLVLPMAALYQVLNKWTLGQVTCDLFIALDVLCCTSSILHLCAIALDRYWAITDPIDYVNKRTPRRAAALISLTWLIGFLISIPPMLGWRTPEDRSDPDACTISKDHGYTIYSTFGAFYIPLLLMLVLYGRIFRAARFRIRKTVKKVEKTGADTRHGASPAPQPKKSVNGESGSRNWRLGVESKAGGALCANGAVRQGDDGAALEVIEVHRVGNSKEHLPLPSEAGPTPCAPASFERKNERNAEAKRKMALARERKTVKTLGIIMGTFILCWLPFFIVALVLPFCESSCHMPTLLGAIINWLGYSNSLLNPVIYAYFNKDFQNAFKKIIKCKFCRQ

[3] = Drug uptake in cynomolgus monkey brain treated with WAY-100635 followed by compound 230 Ci/mmol, iv measured at 2.5 mins postinjection by PET imaging relative to control; assay type: ADME, organism-based, Macaca fascicularis; conditions: in vivo
[4] = biological target: 5-hydroxytryptamine receptor 2A (Rattus norvegicus, UniProt P14842); experiment: Binding affinity to Wistar rat cortex membrane homogenate 5-HT2A receptor incubated for 90 mins by liquid scintillation counter analysis; assay type: cell membranes
[5] = biological target: 5-hydroxytryptamine receptor 7 (Rattus norvegicus, UniProt P32305); experiment: Binding affinity to rat 5-HT7 receptor assessed as inhibition constant
[6] = Ratio of drug distribution in rat hippocampus to cerebellum at 30 mins postinjection; assay type: ADME, organism-based; conditions: in vivo, 0.5 h
[7] = Drug uptake in plasma (unknown origin) as parent compound by measuring radioactivity at 30 mins postinjection relative to control; assay type: ADME, organism-based; conditions: in vivo, 0.5 h
[8] = biological target: T2, 5-hydroxytryptamine receptor 1A; remark: listed apart in the source
[9] = biological target: T3, Alpha-1A adrenergic receptor (Homo sapiens, UniProt P35348); experiment: Inhibition of alpha 1A adrenergic receptor (unknown origin)
T3 sequence (P35348 whole entry): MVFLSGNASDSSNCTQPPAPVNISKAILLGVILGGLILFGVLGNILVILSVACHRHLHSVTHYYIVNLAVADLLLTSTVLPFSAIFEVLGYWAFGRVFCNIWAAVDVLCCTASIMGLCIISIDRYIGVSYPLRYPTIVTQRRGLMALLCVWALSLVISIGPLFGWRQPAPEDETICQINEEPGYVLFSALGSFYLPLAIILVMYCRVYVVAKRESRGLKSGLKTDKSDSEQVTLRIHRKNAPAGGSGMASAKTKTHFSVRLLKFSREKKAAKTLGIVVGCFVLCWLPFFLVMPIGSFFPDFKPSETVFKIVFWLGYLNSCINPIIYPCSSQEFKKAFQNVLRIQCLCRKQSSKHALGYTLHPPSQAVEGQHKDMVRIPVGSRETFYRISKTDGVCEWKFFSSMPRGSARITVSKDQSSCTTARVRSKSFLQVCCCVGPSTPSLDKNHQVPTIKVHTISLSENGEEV

[10] = biological target: Alpha-1A adrenergic receptor (Homo sapiens) (UniProt P35348); experiment: Binding affinity to alpha 1A adrenergic receptor (unknown origin); conditions: filed as antagonist
[11] = biological target: T1, 5-hydroxytryptamine receptor 1A; experiment: Displacement of [3H]-8-OH-DPAT from rat hippocampal membrane 5HT1A receptor by CEREP assay; assay type: cell membranes, Hippocampus
[12] = biological target: T4, 5-hydroxytryptamine receptor 2C (Homo sapiens, UniProt P28335); experiment: Binding affinity to human 5-HT2C assessed as inhibition constant
T4 sequence (P28335 whole entry): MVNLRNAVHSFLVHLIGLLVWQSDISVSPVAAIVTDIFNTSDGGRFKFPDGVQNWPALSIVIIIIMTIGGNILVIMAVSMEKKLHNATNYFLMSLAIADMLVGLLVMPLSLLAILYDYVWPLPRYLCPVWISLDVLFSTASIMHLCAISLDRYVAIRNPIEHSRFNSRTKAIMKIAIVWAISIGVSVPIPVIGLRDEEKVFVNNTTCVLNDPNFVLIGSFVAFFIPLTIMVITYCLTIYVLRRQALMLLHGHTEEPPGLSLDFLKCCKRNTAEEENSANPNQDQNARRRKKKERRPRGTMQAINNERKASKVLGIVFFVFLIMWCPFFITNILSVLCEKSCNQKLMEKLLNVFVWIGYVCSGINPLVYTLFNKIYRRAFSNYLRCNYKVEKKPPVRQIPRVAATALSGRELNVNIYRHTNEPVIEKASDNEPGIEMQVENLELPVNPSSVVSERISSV

D(4) dopamine receptor = D(4) dopamine receptor (Homo sapiens, UniProt P21917); experiment: Binding affinity to D4 receptor (unknown origin) assessed as inhibition constant
[13] = biological target: T5, 5-hydroxytryptamine receptor 7 (Homo sapiens, UniProt P34969); experiment: Binding affinity to 5-HT7 receptor (unknown origin) assessed as inhibition constant
[14] = biological target: T3, Alpha-1A adrenergic receptor; experiment: Binding affinity to alpha 1A adrenergic receptor (unknown origin) assessed as inhibition constant
[15] = plasma, 10 min
Description: Drug metabolism in plasma (unknown origin) assessed as parent compound remaining by measuring total radioactivity at 10 mins by HPLC analysis

[16] = Ratio of drug uptake in cynomolgus monkey cingulate gyrus to cerebellum measured at 87.5 mins postinjection; assay type: ADME, organism-based, Macaca fascicularis; conditions: in vivo, 1.458 h
[17] = Biodistribution in rat assessed as drug uptake measured as percentage of injected dose per gram of tissue relative to control; assay type: ADME, organism-based; conditions: in vivo
[18] = Drug uptake in cynomolgus monkey in brain administered IV measured at 7.5 mins relative to control; assay type: ADME, tissue-based, Macaca fascicularis; conditions: in vivo, 0.125 h
[19] = Ratio of drug distribution in cynomolgus monkey hippocampus to cerebellum measured at 30 mins postinjection; assay type: ADME, organism-based, Macaca fascicularis; conditions: in vivo, 0.5 h
[20] = Drug metabolism in plasma (unknown origin) assessed as parent compound remaining measured at 55 mins relative to control; assay type: ADME; conditions: read-out: Stability
[21] = Ratio of drug uptake in baboon insula to cerebellum; assay type: ADME, tissue-based, Papio; conditions: in vivo
[22] = Ratio of drug uptake in baboon hippocampus to cerebellum; assay type: ADME, tissue-based, Papio; conditions: in vivo
[23] = Ratio of drug uptake in baboon cingulate cortex to cerebellum; assay type: ADME, tissue-based, Papio; conditions: in vivo
[24] = biological target: T5, 5-hydroxytryptamine receptor 7; experiment: Binding affinity to human recombinant 5-HT7 receptor expressed in CHO cells assessed as inhibition constant; assay type: cell-based
[25] = biological target: T2, 5-hydroxytryptamine receptor 1A; experiment: Binding affinity to human recombinant 5-HT1A expressed in CHO cells assessed as inhibition constant; assay type: cell-based
[26] = biological target: T5, 5-hydroxytryptamine receptor 7; experiment: Binding affinity to human 5-HT7 receptor expressed in HEK293 cells incubated for 1 hr by 96 microwell plate; assay type: cell-based; conditions: filed as agonist
[27] = Drug metabolism in Rhesus monkey plasma assessed as unmetabolized compound after 3 hrs by TLC analysis; assay type: ADME, cell-free, Macaca mulatta; conditions: read-out: Stability
[28] = Ratio of drug uptake in Rhesus monkey temporal cortex to cerebellum; assay type: ADME, tissue-based, Macaca mulatta; conditions: in vivo
[29] = Ratio of drug uptake in Rhesus monkey frontal cortex to cerebellum; assay type: ADME, tissue-based, Macaca mulatta, Brain frontal cortex/cerebellum; conditions: in vivo
[30] = Ratio of drug uptake in Rhesus monkey raphe to cerebellum; assay type: ADME, tissue-based, Macaca mulatta; conditions: in vivo

T5 sequence (P34969 whole entry): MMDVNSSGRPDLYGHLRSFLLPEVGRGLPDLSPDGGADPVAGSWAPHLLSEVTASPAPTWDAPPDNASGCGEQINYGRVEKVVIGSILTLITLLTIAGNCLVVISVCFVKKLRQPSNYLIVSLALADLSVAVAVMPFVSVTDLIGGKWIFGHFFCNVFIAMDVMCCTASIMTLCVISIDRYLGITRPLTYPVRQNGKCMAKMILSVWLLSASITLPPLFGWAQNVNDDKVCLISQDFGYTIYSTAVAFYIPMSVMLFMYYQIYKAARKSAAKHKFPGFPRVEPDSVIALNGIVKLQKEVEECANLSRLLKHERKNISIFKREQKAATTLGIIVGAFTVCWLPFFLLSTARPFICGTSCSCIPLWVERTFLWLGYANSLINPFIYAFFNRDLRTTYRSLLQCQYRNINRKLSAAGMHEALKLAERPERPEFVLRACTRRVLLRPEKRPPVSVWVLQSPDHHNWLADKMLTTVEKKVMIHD
Sequence of D(4) dopamine receptor (P21917 whole entry): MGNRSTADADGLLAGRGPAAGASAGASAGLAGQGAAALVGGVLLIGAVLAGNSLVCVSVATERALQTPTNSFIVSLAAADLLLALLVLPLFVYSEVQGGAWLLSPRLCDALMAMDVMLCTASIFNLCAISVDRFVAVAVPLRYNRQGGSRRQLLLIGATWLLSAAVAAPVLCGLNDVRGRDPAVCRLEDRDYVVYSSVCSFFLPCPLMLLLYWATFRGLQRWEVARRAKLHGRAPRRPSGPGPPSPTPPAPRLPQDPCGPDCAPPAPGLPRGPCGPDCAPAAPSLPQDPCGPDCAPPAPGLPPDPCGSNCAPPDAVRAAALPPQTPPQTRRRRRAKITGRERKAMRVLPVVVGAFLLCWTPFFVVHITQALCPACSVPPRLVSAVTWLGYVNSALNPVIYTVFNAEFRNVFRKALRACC
Sequence of 5-hydroxytryptamine receptor 2A (P14842 whole entry): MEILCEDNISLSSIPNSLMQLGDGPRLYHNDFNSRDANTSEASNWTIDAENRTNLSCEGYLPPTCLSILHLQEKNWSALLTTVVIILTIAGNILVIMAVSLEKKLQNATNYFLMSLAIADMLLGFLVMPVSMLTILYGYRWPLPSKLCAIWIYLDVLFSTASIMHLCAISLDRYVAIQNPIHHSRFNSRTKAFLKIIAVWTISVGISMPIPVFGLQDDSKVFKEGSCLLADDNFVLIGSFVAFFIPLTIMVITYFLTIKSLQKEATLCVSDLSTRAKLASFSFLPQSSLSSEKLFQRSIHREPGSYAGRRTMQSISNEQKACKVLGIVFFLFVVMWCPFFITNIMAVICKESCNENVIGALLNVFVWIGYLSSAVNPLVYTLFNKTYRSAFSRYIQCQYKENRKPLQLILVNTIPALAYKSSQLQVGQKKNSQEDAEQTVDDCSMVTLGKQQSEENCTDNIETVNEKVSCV
Sequence of 5-hydroxytryptamine receptor 7 (Rattus norvegicus, UniProt P32305) (P32305 whole entry): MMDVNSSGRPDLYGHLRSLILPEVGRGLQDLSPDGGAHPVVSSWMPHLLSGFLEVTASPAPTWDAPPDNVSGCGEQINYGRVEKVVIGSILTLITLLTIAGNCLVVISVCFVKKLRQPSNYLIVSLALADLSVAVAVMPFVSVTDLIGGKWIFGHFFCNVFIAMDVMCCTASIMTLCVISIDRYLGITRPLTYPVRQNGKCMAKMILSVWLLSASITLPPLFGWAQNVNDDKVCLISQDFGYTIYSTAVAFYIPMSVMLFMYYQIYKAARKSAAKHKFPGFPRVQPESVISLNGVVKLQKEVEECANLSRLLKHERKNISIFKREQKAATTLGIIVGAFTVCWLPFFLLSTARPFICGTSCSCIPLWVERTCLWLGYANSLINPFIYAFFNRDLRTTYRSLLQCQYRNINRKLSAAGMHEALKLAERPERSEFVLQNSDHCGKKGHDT

- Ki [2]: 0.91 nM
- Drug uptake [3]: 4.8%
Structure (SMILES): COc1ccccc1N1CCN(CC(C)N(c2ccccn2)[11C](=O)C2CCCCC2)CC1 (racemic)

- Ki [4]: 198 nM
Structure (SMILES): [O-][S+](c1ccc(F)cc1)C1CCN(CCc2ccc(F)cc2F)CC1 (stereo not given)

- IC50 [9]: 43 nM
Structure (SMILES): [11CH3]Oc1cccc2c1CCCC2CCCN1CCN(c2ccccc2)CC1 (stereo not given)

- Ki [12]: 71 nM
Structure (SMILES): COc1c(OCCF)cccc1[C@H](O)C1CCN(CCc2ccc(F)cc2)CC1

- Stability [15]: < 10%
Structure (SMILES): O=[11C](C1CCCCC1)N(CCN1CCN(c2ccccc2O)CC1)c1ccccn1

- Drug uptake [18]: 4.33%
- Ratio [19]: 1.4
- remaining at 55 min [20]: 20%
Structure (SMILES): COc1ccccc1N1CCN(CCN(C(=O)C2CCCCC2)c2cccc([18F])n2)CC1

- Ratio [21]: > 4.7
- Ratio [22]: > 4.7
- Ratio [23]: > 4.7
Structure (SMILES): Cn1c(=O)cnn(CCCCN2CCN(c3ccccc3O[11CH3])CC2)c1=O

- K [26]: 30 nM
Structure (SMILES): CCn1cncc1-c1c[nH]c2ccc(OC)cc12

- Drug uptake [17]: 0.37 % ID/g
Structure (SMILES): COc1ccccc1N1CCN(CCCCN(C)C(=O)c2cnc(S[11CH3])n2C)CC1

- remaining at 3 h [27]: 30%
- Ratio [28]: 10
- Ratio [29]: 9
- Ratio [30]: 3.3
Structure (SMILES): COc1ccccc1N1CCN(CCN(C(=O)C2CCC(C[18F])CC2)c2ccccn2)CC1 (stereo not given)

Further lines, the compound ahead of its results:

Structure (SMILES): Cc1ccc2c(c1O)-c1cccc3c1C(C2)N(C)CC3 (stereo not given)
- Ki [1]: 0.45 nM

Structure (SMILES): CCC1(CCCCN2CCN(c3cccc(OCCF)c3)CC2)C(=O)Nc2ccccc21 (stereo not given)
- Ki [5]: 13 nM

Structure (SMILES): COc1ccccc1N1CCN(CCN(C(=O)c2ccc([18F])cc2)c2ccccn2)CC1
- Ratio [6]: 5.6
- Drug uptake [7]: 20%
- Kd [8]: 0.34 nM

Structure (SMILES): COc1ccccc1N1CCN(CCCCN(C)C(=O)c2cnc(SC)n2C)CC1
- K [10]: 5.45 nM
- IC50 [11]: 0.86 nM

Structure (SMILES): COc1cccc(N2CCN(CCCCn3ncc(=O)n(C)c3=O)CC2)c1
- Ki (D(4) dopamine receptor): 21.8 nM
- Ki [13]: 12.9 nM
- Ki [14]: 6.75 nM
- Ki [2]: 0.15 nM

Structure (SMILES): COc1ccccc1N1CCN(CCCCn2ccnc2SC)CC1
- K [10]: 3 nM
- IC50 [11]: 0.58 nM

Structure (SMILES): [11CH3]Oc1ccccc1N1CCN(CC[C@@H](C(=O)N2CCCCCC2)c2ccccc2)CC1
- Ratio [16]: 6.4

Structure (SMILES): COc1ccccc1N1CCN(CCCCn2ccnc2S[11CH3])CC1
- Drug uptake [17]: 1.14 % ID/g

Structure (SMILES): COc1ccccc1N1CCN(CCC[C@H]2CCCN2S(=O)(=O)c2ccccc2F)CC1
- Ki [24]: 1.9 nM
- Ki [25]: 4.1 nM
